{"source": "patent EP4578449A1", "about": "“PHARMACEUTICAL COMBINATION OF FAK INHIBITOR AND MICROTUBULE INHIBITOR AND USE THEREOF” (Inxmed (Nanjing) Co., Ltd., priority 2022, dated 2024)", "key": {"colon cancer CT26 cells": {"system": "colon cancer CT26 cells", "assay": "CCK8 cell viability assay, Docetaxel with or without IN10018", "type": "cell-based", "details": "Mus musculus, 72 hours, Docetaxel alone", "experimental": "CT26 cells were cultured with RPMI-1640 (Shanghai Basalmedia, catalog number: L210KJ, batch number: F210916) + 10% FBS (Gibco, catalog number: 10099-141c, batch number: 2158737cp), and passaged twice. When the cells were in good condition, they were placed in a 96-well plate, 3000 cells/well. After the cells were spread for 24 hours, the culture medium containing Docetaxel was added. 10 drug concentrations were set. The first concentration was 30 µM, which was serially diluted 3-fold, and the last one was the control, with the drug concentration of 0. Three compound wells were set for each drug concentration. At the same time, another group of cells was established with the same drug concentration as that in the above method. The difference was that: 5 µM IN10018 was added to each well, the drugs were mixed, and the plate was cultured in a 5% CO2 incubator at 37 °C for 72 hours.\nAfter 72 hours of drug action, the cells were observed under a microscope. 10 µl of CCK8 detection reagent (Cellorlab, classification number: CX001M, batch number: 2571100) was added to each well, and the plate was incubated in a 5% CO2 incubator at 37 °C for 2-4 hours. Then the plate was read using microplate reader OD450 ([…])."}, "breast cancer 4T1 cells": {"system": "breast cancer 4T1 cells", "assay": "Subcutaneous allograft tumor model of breast cancer 4T1 cells in BALB/c mice", "type": "in vivo", "excerpt": "Mice: Female BALB/c mice aged 6-8 weeks were purchased from SHANGHAI SLAC LABORATORY ANIMAL CO. LTD. The assay began after the animals were adapted to the assay environment upon arrival. The animals were kept in IVC (independent ventilation system) cages (5 per cage) in an SPF animal room. All cages, padding and drinking water must be sterilized before use. All assay personnel should wear protective clothing and latex gloves when operating in the animal room. Cages, feed and drinking water were replaced twice a week. The feeding environment and lighting conditions were as follows: • Temperature: 20-26 °C • Humidity: 40-70% • Lighting period: 12 hours light, 12 hours no light • Cages: Made of polycarbonate, 300 mm × 180 mm × 150 mm. The padding was corn cobs, which was replaced twice a week. • Food: The assay animals had free access to food (dry pelleted food sterilized by irradiation) throughout the assay period. • Drinking water: Assay animals were free to drink sterile water. • Cage identification: The animal information card for each cage should indicate the number of animals in the cage, gender, strain, receipt date, dosing regimen, assay number, group and start date of the assay. • Animal identification: Assay animals were identified with ear tags.\nBreast cancer cell 4T1 (source: Nanjing Cobioer Biotechnology Co., Ltd., catalog number: CBP60352) was maintained and passaged by INXMED (Nanjing) Co., Ltd. The cells were cultured in a monolayer in vitro in RPMI-1640 medium with 10% fetal bovine serum in a 37 °C, 5% CO2 incubator. Trypsin-EDTA was used for routine digestion and passage treatment two to three times a week. When the cells were in the exponential growth phase and the adherent confluence reached 80%-90%, the cells were harvested and plated.\n0.1 mL of cell suspension containing 2 x 10^5 cells was subcutaneously inoculated on the right back of each mouse. When the tumor volume reached ~52 mm^3 (10th day after cell inoculation), the mice were randomly divided into groups for drug administration according to the tumor volume. Table 9. Dosing regimen of the test substance in 4T1 mouse transplant tumor model\nThe formulation and any modifications of this assay protocol had been assessed and approved by the IACUC of ArrayBridge. The use and welfare of assay animals were carried out in accordance with AAALAC regulations. The health status and mortality of animals were monitored daily, with routine checks including observation of tumor growth and the impact of drug treatment on the animals' daily behavior, such as activity, food and water intake (estimated by visual inspection), changes in body weight, physical signs, or any other abnormalities. The number of animal deaths and side effects in each group were recorded based on the number of animals in each group.\nIf the animal's health condition continued to deteriorate, or if the tumor volume exceeded 3,000 mm^3, or there was a serious disease or pain, euthanasia should be carried out. In the following cases, the veterinarian was notified and euthanasia was performed: obvious weight loss, i.e., weight loss greater than 20%; inability to freely eat and drink; the average tumor volume of the control group reached 2000 mm^3, the assay was terminated.\nTumor diameters were measured three times a week using calipers. The tumor volume was calculated using the formula: V = 0.5 × a × b^2, where a and b represent the long and short diameters of the tumor, respectively.\nBased on the tumor volume on the first day after grouping, the tumor growth inhibition rate TGI (%) was calculated according to the following formula: TGI (%) = [1 - (average tumor volume of a treatment group - average tumor volume of the treatment group at the beginning of treatment) / (average tumor volume of the solvent control group - average tumor volume of the solvent control group at the beginning of treatment)] × 100%. […]"}}}
{"smiles": "CC(=O)O[C@@]12CO[C@@H]1C[C@H](O)[C@@]1(C)C(=O)[C@H](O)C3=C(C)[C@@H](OC(=O)[C@H](O)[C@@H](NC(=O)OC(C)(C)C)c4ccccc4)C[C@@](O)([C@@H](OC(=O)c4ccccc4)[C@H]21)C3(C)C", "note": "[Docetaxel]", "values": [{"measurement": "IC50", "setting": "colon cancer CT26 cells", "result": 190, "unit": "nM"}, {"measurement": "Tumor volume on day 0", "setting": "breast cancer 4T1 cells; baseline at grouping (10th day after inoculation), mean ± standard error, 6 mice per group", "result": "51.1 ± 13.2", "unit": "mm^3"}, {"measurement": "TGI", "setting": "breast cancer 4T1 cells; day 21 after administration, vs control group, DTX 10 mg/kg i.p. BIW, IN10018 25 mg/kg p.o. QD, MAX10181 120 mg/kg p.o. BID", "result": 14.9, "unit": "%"}, {"measurement": "Tumor volume on day 21", "setting": "breast cancer 4T1 cells; day 21 after administration, DTX 10 mg/kg i.p. BIW, IN10018 25 mg/kg p.o. QD, MAX10181 120 mg/kg p.o. BID, mean ± standard error", "result": "1818.7 ± 644.0", "unit": "mm^3"}]}
